# US6451831B1, “Agent for hypoalbuminaemia” (Nippon Zoki Pharmaceutical Co., Ltd., priority 2001, dated 2002)
# Tests used:
# [1] = tested on: patients suffering from hypoalbuminaemia (serum albumin value less than 3.0 g/dL); assay: Clinical test: serum albumin values in patients suffering from hypoalbuminaemia; format: in vivo, human
# Experimental: The compound of the present invention (Compound 21 ) was administered to 6 patients suffering from hypoalbuminaemia (serum albumin value was less than 3.0 g/dL) at the dose of 200 mg/day (dosage for only Patient 1 was 400 mg/day). Serum albumin values were compared between before and after administration for 24 weeks (after 16 weeks in case of only Patient 2). […] In another case of tested subjects showing a normal value of serum albumin, any change of the value was not noted by the administration of the compounds of the present invention.
# patients = assay: Clinical tests: toxicity and side effects; format: in vivo, human; conditions: clinically confirmed
structure (smiles),measurement,setting,value
"CN1C(=O)NC(=O)C1O (stereo not drawn) [Compound 21, 5-Hydroxy-1-methylhydantoin]",Effect on serum albumin values (in words),"[1]; 6 patients with hypoalbuminaemia, 200 mg/day (Patient 1: 400 mg/day), 24 weeks (Patient 2: 16 weeks), paired t-test",significantly increased
same,Serum albumin value After Administration for 24 weeks,"[1]; Patient 1, 400 mg/day, 24 weeks, before administration 1.7 g/dL",2.1 g/dL
same,Serum albumin value After Administration for 24 weeks,"[1]; Patient 2, 200 mg/day, after 16 weeks according to text, before administration 2.0 g/dL",2.3 g/dL
same,Serum albumin value After Administration for 24 weeks,"[1]; Patient 3, 200 mg/day, 24 weeks, before administration 2.3 g/dL",3.4 g/dL
same,Serum albumin value After Administration for 24 weeks,"[1]; Patient 4, 200 mg/day, 24 weeks, before administration 2.4 g/dL",2.7 g/dL
same,Serum albumin value After Administration for 24 weeks,"[1]; Patient 5, 200 mg/day, 24 weeks, before administration 2.5 g/dL",3.2 g/dL
same,Serum albumin value After Administration for 24 weeks,"[1]; Patient 6, 200 mg/day, 24 weeks, before administration 2.7 g/dL",3.0 g/dL
same,"Serum albumin value After Administration for 24 weeks, Mean Value","[1]; mean of 6 patients, before administration 2.3 ± 0.2 g/dL, p < 0.01, paired t-test",2.8 ± 0.2 g/dL
same,Toxicity and side effects (in words),patients,low toxicity and lower side effects
